Reference: patent US4185015A, “Methoxymethyl 6-[D-2,2-dimethyl-4-(4-hydroxyphenyl)-5-oxo-1-imidazolyl]penicillanate” (priority 1977, dated 1980)
In brackets after ≈: the same amount, converted by molar mass. Like-named read-outs stand apart in the source and are kept apart here.

Tests used:
[1] = tested on: D. pneumoniae; test: MIC against various organisms (Table I); type: cell-based; conditions: Streptococcus pneumoniae; D. pneumoniae + 5% serum; read-out: minimum inhibitory concentration
[2] = tested on: K. pneumoniae; test: MIC against various organisms (Table I); type: cell-based; conditions: Klebsiella pneumoniae, read-out: minimum inhibitory concentration
[3] = tested on: S. aureus BX1633; test: MIC against various organisms (Table I); type: cell-based; conditions: Staphylococcus aureus
[4] = tested on: Ps. aeruginosa; test: MIC against various organisms (Table I); type: cell-based; conditions: Pseudomonas aeruginosa, read-out: minimum inhibitory concentration
[5] = tested on: E. coli; test: MIC against various organisms (Table I); type: cell-based; conditions: Escherichia coli, read-out: minimum inhibitory concentration
[6] = tested on: S. aureus Smith; test: MIC against various organisms (Table I); type: cell-based; conditions: Staphylococcus aureus, read-out: minimum inhibitory concentration
[7] = tested on: S. aureus; test: MIC against various organisms (Table I); type: cell-based; conditions: Staphylococcus aureus, read-out: minimum inhibitory concentration
[8] = tested on: E. coli Juhl; test: MIC against various organisms (Table I); type: cell-based; conditions: Escherichia coli, read-out: minimum inhibitory concentration
[9] = tested on: Pr. mirabilis; test: MIC against various organisms (Table I); type: cell-based; conditions: Proteus mirabilis, read-out: minimum inhibitory concentration
[10] = tested on: Ser. marcescens; test: MIC against various organisms (Table I); type: cell-based; conditions: Serratia marcescens, read-out: minimum inhibitory concentration
[11] = tested on: Sal. enteritidis; test: MIC against various organisms (Table I); type: cell-based; conditions: Salmonella enterica, read-out: minimum inhibitory concentration
[12] = tested on: Pr. morganii; test: MIC against various organisms (Table I); type: cell-based; conditions: Morganella morganii, read-out: minimum inhibitory concentration
[13] = tested on: Str. pyogenes; test: MIC against various organisms (Table I); type: cell-based; conditions: Streptococcus pyogenes; Str. pyogenes + 5% serum; read-out: minimum inhibitory concentration
[14] = in vivo; parameters: species or system mice; conditions: mouse, po, 50 mg/kg
[15] = tested on: E. coli Juhl; test: MIC in Nutrient Broth (Table III); type: cell-based; conditions: Escherichia coli; E. coli Juhl (10^-4)
Text: (§1) Organism in Nutrient Broth
(§2) **Dilution of overnight broth culture

[16] = tested on: K. pneumoniae; test: MIC in Nutrient Broth (Table III); type: cell-based; conditions: Klebsiella pneumoniae
Text: as §1, §2

[17] = tested on: Ps. aeruginosa; test: MIC in Nutrient Broth (Table III); type: cell-based; conditions: Pseudomonas aeruginosa
Text: as §1, §2

[18] = tested on: S. aureus BX1633; test: MIC in Nutrient Broth (Table III); type: cell-based; conditions: Staphylococcus aureus
Text: as §1, §2

[19] = tested on: Pr. mirabilis; test: MIC in Nutrient Broth (Table III); type: cell-based; conditions: Proteus mirabilis; Pr. mirabilis (10^-4)
Text: as §1, §2

[20] = tested on: Pr. morganii; test: MIC in Nutrient Broth (Table III); type: cell-based; conditions: Morganella morganii
Text: as §1, §2

[21] = tested on: S. aureus Meth.-Res.; test: MIC in Nutrient Broth (Table III); type: cell-based; conditions: Staphylococcus aureus, S. aureus Meth.-Res. (10^-3), read-out: MIC
Text: as §1, §2

[22] = tested on: Sal. enteritidis; test: MIC in Nutrient Broth (Table III); type: cell-based; conditions: Salmonella enterica; Sal. enteritidis (10^-4)
Text: as §1, §2

[23] = tested on: Ent. cloacae; test: MIC in Nutrient Broth (Table III); type: cell-based; conditions: Enterobacter cloacae, Ent. cloacae (10^-4)
Text: as §1, §2

[24] = tested on: S. aureus Smith; test: MIC in Nutrient Broth (Table III); type: cell-based; conditions: Staphylococcus aureus, S. aureus Smith (10^-4)
Text: as §1, §2

[25] = tested on: Ser. marcescens; test: MIC in Nutrient Broth (Table III); type: cell-based; conditions: Serratia marcescens; Ser. marcescens (10^-4)
Text: as §1, §2

[26] = tested on: E. coli; test: MIC in Nutrient Broth (Table III); type: cell-based; conditions: Escherichia coli; E. coli (10^-4)
Text: as §1, §2

[27] = tested on: Str. pyogenes; test: MIC in Nutrient Broth (Table III); type: cell-based; conditions: Streptococcus pyogenes, 10^-3 dilution of overnight broth culture, 45% AAB, 5% serum, 50% broth
Text: as §1
(§3) *45% AAB 5% serum 50% broth listed above,
as §2

[28] = tested on: Str. pneumoniae; test: MIC in Nutrient Broth (Table III); type: cell-based; conditions: Streptococcus pneumoniae, 10^-3 dilution of overnight broth culture, 45% AAB, 5% serum, 50% broth
Text: as §1, §3, §2

[29] = Oral absorption in man, BL-P1780 Study 101; conditions: for Cmax: saliva
Description: (§4) Only the latter are biologically active per se. Also, both original ester and parent penicillin were measured.
Three formulations were each administered once orally to six (6) healthy adult male subjects in BL-P1780 Study 101 as follows:
A. BL-P1780, 500 mg. (of amoxicillin-equivalent activity) as two 250 mg. buffered tablets.
B. BL-P1780, 500 mg. (an amoxicillin-equivalent activity) as two 250 mg. buffered tablets with 3.5 g. sodium bicarbonate being taken five minutes prior to the adminstration of BL-P1780.
C. Amoxicillin, 500 mg. as two 250 mg. capsules.
1. To investigate the human safety and tolerance of single 500 mg. doses of BL-P1780.
2. To determine the effect of intragastric buffering with sodium bicarbonate on the absorption of BL-P1780.
3. To compare amoxicillin plasma and saliva concentrations and urinary excretion between BL-P1780 and amoxicillin.

[30] = in vivo, po
Description: as §4

[31] = man, oral 500 mg., six subjects

## CC1(C)S[C@@H]2[C@H](NC(=O)[C@H](N)c3ccccc3)C(=O)N2[C@H]1C(=O)O [Cpd. A, ampicillin]
[1]
  MIC: 0.004 µg/mL
[2]; K. pneumoniae, first of two lines
  MIC: 0.3 µg/mL (≈ 0.859 µM)
[2]
  MIC: 125 µg/mL (≈ 358 µM)
[3]; BX1633, read-out: minimum inhibitory concentration, S. aureus BX1633, first of two lines
  MIC: 125 µg/mL (≈ 358 µM)
[3]; BX1633, read-out: minimum inhibitory concentration, S. aureus BX1633, second of two lines
  MIC: > 125 µg/mL
[4]
  MIC: > 125 µg/mL
[5]
  MIC: 32 µg/mL (≈ 91.6 µM)
[6]; S. aureus Smith + 50% serum
  MIC: 0.06 µg/mL
[6]; S. aureus Smith
  MIC: 0.03 µg/mL (≈ 0.0859 µM)
[7]; first of three lines
  MIC: 125 µg/mL (≈ 358 µM)
[7]; second of three lines
  MIC: 125 µg/mL (≈ 358 µM)
[7]; third of three lines
  MIC: > 125 µg/mL
[8]
  MIC: 1 µg/mL (≈ 2.86 µM)
[9]
  MIC: 0.16 µg/mL (≈ 0.458 µM)
[10]
  MIC: 32 µg/mL (≈ 91.6 µM)
[11]
  MIC: 0.13 µg/mL (≈ 0.372 µM)
[12]
  MIC: > 125 µg/mL
[13]
  MIC: 0.004 µg/mL
[14]
  concentration at 0.5 h: 3300 ng/mL
  concentration at 1 h: 2100 ng/mL
  concentration at 2 h: 900 ng/mL
  concentration at 3.5 h: 500 ng/mL

## CC1(C)S[C@@H]2[C@H](NC(=O)[C@H](N)c3ccc(O)cc3)C(=O)N2[C@H]1C(=O)O [Amoxicillin Trihydrate]
[15]
  MIC: 1 µg/mL
[16]
  MIC: > 125 µg/mL
[16]; K. pneumoniae (10^-4), first of two lines, read-out: MIC
  MIC: 0.25 µg/mL
[17]
  MIC: > 125 µg/mL
[18]; BX1633
  MIC: > 125 µg/mL
[18]; BX1633, S. aureus BX1633 (10^-3), read-out: MIC
  MIC: 16 µg/mL
[19]
  MIC: 0.25 µg/mL
[20]
  MIC: > 125 µg/mL
[21]; 28° C.
  MIC: 32 µg/mL
[21]; 37° C.
  MIC: 63 µg/mL
[22]
  MIC: 0.25 µg/mL
[23]; first of three lines
  MIC: > 125 µg/mL
[23]; second of three lines, read-out: MIC
  MIC: 63 µg/mL
[23]; third of three lines
  MIC: 125 µg/mL
[24]
  MIC: 0.13 µg/mL
[25]
  MIC: 32 µg/mL
[26]
  MIC: 16 µg/mL
[27]
  MIC: 0.016 µg/mL
[28]
  MIC: 0.016 µg/mL

## CC1(C)S[C@@H]2[C@H](NC(=O)[C@H](N)c3ccc(O)cc3)C(=O)N2[C@H]1C(=O)O [amoxicillin, D-6-(p-hydroxy-α-aminophenylacetamido)penicillanic acid]
[29]; human, po, 500 mg, maximum saliva amoxicillin level, man, oral 500 mg.
  Cmax: 60 ng/mL
[29]; human, po, 500 mg, mean peak saliva amoxicillin level, man, oral 500 mg.
  Cmax: 30 ng/mL
[29]; human, urine, po, 500 mg
  dose excreted at 24 h: 50.9%
[29]; man, oral 500 mg.
  time course of saliva amoxicillin levels: delayed and erratic
[29]; [31]
  subjects found to be slow absorbers: Two of the six subjects
  subjects with detectable saliva amoxicillin levels: only 3 of the 6 subjects

## COCOC(=O)[C@@H]1N2C(=O)[C@@H](N3C(=O)[C@@H](c4ccccc4)NC3(C)C)[C@H]2SC1(C)C [BL-P1761, methoxymethyl ester of hetacillin]
[30]
  hydrolysis of the ester: hydrolyze eventually to their parent penicillins
